# Laboratory results published in US11040026B2, “Muscarinic M1 receptor positive allosteric modulators” (SUVEN LIFE SCIENCES LIMITED, priority 2016, dated 2021).
# Counter-ions that a name gives are not always drawn.
# Target: T1, muscarinic M1 receptor (Homo sapiens, UniProt P11229)
# T1 sequence (P11229 1-460): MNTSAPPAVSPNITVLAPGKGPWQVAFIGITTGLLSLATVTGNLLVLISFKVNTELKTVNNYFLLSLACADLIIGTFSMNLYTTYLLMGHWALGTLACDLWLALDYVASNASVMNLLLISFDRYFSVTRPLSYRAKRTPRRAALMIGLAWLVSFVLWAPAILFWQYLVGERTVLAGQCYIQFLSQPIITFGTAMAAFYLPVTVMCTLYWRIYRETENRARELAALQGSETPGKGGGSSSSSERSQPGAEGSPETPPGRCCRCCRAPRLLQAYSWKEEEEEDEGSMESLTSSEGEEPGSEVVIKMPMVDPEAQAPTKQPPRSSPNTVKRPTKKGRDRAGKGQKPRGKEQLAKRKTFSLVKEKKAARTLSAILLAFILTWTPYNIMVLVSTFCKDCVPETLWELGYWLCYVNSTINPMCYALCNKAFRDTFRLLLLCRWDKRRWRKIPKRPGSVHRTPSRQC
# Test: Allosteric potency EC50 for muscarinic M1 receptor (CHO pCRE-Luc reporter assay)
# Format: cell-based
# Conditions: in presence of EC20 of acetylcholine; CHO cells, luciferase reporter, 4 hours
# Procedure: Determination of Allosteric Potency EC50 Values for Muscarinic M1 Receptor:
# A stable CHO cell line expressing recombinant human Muscarinic M1 receptor and pCRE-Luc reporter system was used for cell-based assay. The assay offers a non-radioactive based approach to determine binding of a compound to GPCRs. In this specific assay, the level of intracellular cyclic AMP which is modulated by activation or inhibition of the receptor is measured. The recombinant cells harbor luciferase reporter gene under the control of cyclic AMP response element.
# The above cells were grown in 96 well clear bottom white plates in Hams F12 medium containing 10% fetal bovine serum (FBS). Prior to the addition of compounds or standard agonist, cells were serum starved overnight. Increasing concentrations of test compounds were added along with EC20 of acetylcholine in OptiMEM medium to the cells. The incubation was continued at 37° C. in CO2 incubator for 4 hours. Medium was removed and cells were washed with phosphate buffered saline. The cells were lysed and luciferase activity was measured in a Luminometer. Luminescence units were plotted against the compound concentrations using Graphpad software. EC50 values of the compounds were defined as the concentration required in stimulating the luciferase activity by 50% in presence of EC20 of acetylcholine and the results are provided in table 1.
row,SMILES,EC50 [nM]
1,"COc1ccc(Cc2cc(C(=O)N[C@H]3CCCC[C@@H]3O)nc3c2OCCN3C)cc1 [Example 127, N-[(1S,2S)-2-Hydroxycyclohexyl]-8-(4-methoxybenzyl)-4-methyl-2H-pyrido[3,2-b][1,4]oxazine-6-carboxamide]",946
2,"Cn1ccc2c(Cc3ccc(F)c(F)c3)cc(C(=O)N[C@H]3CCOC[C@H]3O)nc21 (single isomer, unassigned; isomer-i) [Example 41, cis-N-(3-Hydroxytetrahydropyran-4-yl)-4-(3,4-difluorobenzyl)-1-methyl-1H-pyrrolo[2,3-b]pyridine-6-carboxamide (Isomer-I)]",1230
3,"Cn1ccc2c(Cc3ccnc(F)c3)cc(C(=O)NC3CCOCC3O)nc21 (single isomer, unassigned) [Example 38, Racemic trans-N-(3-Hydroxytetrahydropyran-4-yl)-4-(2-fluoropyridin-4-ylmethyl)-1-methyl-1H-pyrrolo[2,3-b]pyridine-6-carboxamide]",983
4,"Cn1ccc2c(Cc3ccc(Cl)nc3)cc(C(=O)N[C@H]3CCOC[C@H]3O)nc21 (single isomer, unassigned; isomer-i) [Example 49, cis-N-(3-Hydroxytetrahydropyran-4-yl)-4-(2-chloropyridin-5-ylmethyl)-1-methyl-1H-pyrrolo[2,3-b]pyridine-6-carboxamide (Isomer-I)]",1410
5,"O=C(N[C@@H]1CCOC[C@H]1O)c1cc(Cc2ccc(-c3cscn3)cc2)c2c(n1)CNCC2 (single isomer, unassigned; isomer-ii) [Example 97, trans-N-(3-Hydroxytetrahydropyran-4-yl)-4-[4-(thiazol-4-yl)benzyl]-5,6,7,8-tetrahydro[1,7]naphthyridine-2-carboxamide Hydrochloride (Isomer-II)]",6
6,"O=C(N[C@H]1CCCC[C@@H]1O)c1cc(Cc2ccc(Cl)nc2)c2ccn(CCF)c2n1 [Example 23, N-[(1S,2S)-2-Hydroxycyclohexyl]-4-(2-chloropyridin-5-ylmethyl)-1-(2-fluoroethyl)-1H-pyrrolo[2,3-b]pyridine-6-carboxamide]",727

# Other lines, results leading:
row,EC50 [nM],SMILES
1,234,"Cn1ccc2c(Cc3cccnc3)cc(C(=O)N[C@H]3CCCC[C@@H]3O)nc21 [Example 27, N-[(1S,2S)-2-Hydroxycyclohexyl]-4-(pyridin-3-ylmethyl)-1-methyl-1H-pyrrolo[2,3-b]pyridine-6-carboxamide]"
2,306,"Cn1ccc2c(Cc3ccc4ncsc4c3)cc(C(=O)N[C@H]3CCCC[C@@H]3O)nc21 [Example 12, N-[(1S,2S)-2-Hydroxycyclohexyl]-4-(benzothiazol-6-ylmethyl)-1-methyl-1H-pyrrolo[2,3-b]pyridine-6-carboxamide]"
3,38,"Cn1cc(-c2ccc(Cc3cc(C(=O)N[C@H]4CCCC[C@@H]4O)nc4c3ccn4C)cn2)cn1 [Example 15, N-[(1S,2S)-2-Hydroxycyclohexyl]-4-[2-(1-methyl-1H-pyrazol-4-yl)pyridin-5-ylmethyl]-1-methyl-1H-pyrrolo[2,3-b]pyridine-6-carboxamide]"
4,221,"Cn1ccc2c(Cc3ccc(-c4cscn4)cc3)cc(C(=O)NCC3(O)CCCC3)nc21 [Example 26, N-(1-Hydroxycyclopentylmethyl)-4-[4-(thiazol-4-yl)benzyl]-1-methyl-1H-pyrrolo[2,3-b]pyridine-6-carboxamide]"
5,130,"Cn1ccc2c(Cc3ccc(-c4cscn4)cc3)cc(C(=O)N[C@H]3CCCC[C@@H]3O)nc21 [Example 5, N-[(1S,2S)-2-Hydroxycyclohexyl]-4-(4-thiazol-4-ylbenzyl)-1-methyl-1H-pyrrolo[2,3-b]pyridine-6-carboxamide]"
6,641,"Cn1ccc2nc(C(=O)N[C@H]3CCCC[C@@H]3O)cc(Cc3ccc(F)cc3)c21 [Example 137, N-[(1S,2S)-2-Hydroxycyclohexyl]-7-(4-fluorobenzyl)-1-methyl-1H-pyrrolo[3,2-b]pyridine-5-carboxamide]"
